Results reported in patent US20240108740A1, “THERAPEUTIC COMPOSITIONS INCLUDING SPN10 AND USES THEREOF” (Stealth BioTherapeutics Inc., priority 2022, published 2024).
Residues, ends and D or L forms follow the SMILES beside them.

Key:
[1] = tested on: rat model of radiocontrast dye-induced renal failure; test: Example 39: radiocontrast dye-induced renal failure; type: in vivo
Description: Animal Model: A rat model of radiocontrast dye-induced renal failure as described by Agmon, et al., J. Clin. Invest. 94:1069-1075 (1994) will be used. As in humans, radiocontrast dyes are generally non-toxic when administered to animals with normal renal function. However, radiocontrast dyes can induce ARI in animals with impaired renal function. In this model, impaired renal function will be induced by the administration of indomethacin (10 mg/kg) and L-NAME (10 mg/kg). Animals will be assigned to one of the following groups:
2. Indomethcin and L-NAME administered 15 minutes apart, followed by iothalamate (6 mL/kg) (n=7)
3. peptide conjugates (3 mg/kg, i.p.) administered 15 minutes prior to indomethacin/L-NAME/iothalamate administration as described in Group 2; second dose of peptide conjugates (3 mg/kg) administered immediately after drug exposure (n=9).
4. aromatic-cationic peptides (an equivalent molar dose of aromatic-cationic peptide based on the concentration of the aromatic-cationic peptide administered in the peptide conjugate treatment group) administered 15 minutes prior to indomethacin/L-NAME/iothalamate administration as described in Group 2; second dose of aromatic-cationic peptides (an equivalent molar dose of aromatic-cationic peptide based on the concentration of the aromatic-cationic peptide administered in the peptide conjugate treatment group) administered immediately after drug exposure (n=9).
5. […]
Renal Function: Renal function will be assessed by determining GFR at baseline and 24 hours following dye administration. GFR will be determined by creatinine clearance which will be estimated over a 24 hour interval before and after dye administration. Creatinine clearance will be analyzed by measuring plasma and urinary creatinine levels (Bioassay Systems; DICT-500) and urine volume.
Renal Histology: Kidneys will be fixed in 10% neutral-buffered formalin and embedded in paraffin wax for sectioning. Three-micron sections will be stained with hematoxylin-eosin (H&E) and periodic acid-Schiff (PAS) and analyzed by light microscopy by a board certified pathologist. […]

[2] = tested on: New Zealand white rabbits; test: Acute myocardial infarction injury in a rabbit model; type: in vivo; details: IV infusion, 30-minute ischemia, 3 hours post-reperfusion
Description: New Zealand white rabbits will be used in this study. The rabbits will be males and >10 weeks in age. Environmental controls in the animal rooms will be set to maintain temperatures of 61° to 72° F. and relative humidity between 30% and 70%. Room temperature and humidity will be recorded hourly, and monitored daily. There will be approximately 10-15 air exchanges per hour in the animal rooms. Photoperiod will be 12-hr light/12-hr dark (via fluorescent lighting) with exceptions as necessary to accommodate dosing and data collection. Routine daily observations will be performed. Harlan Teklad, Certified Diet (2030C), rabbit diet will be provided approximately 180 grams per day from arrival to the facility. In addition, fresh fruits and vegetables will be given to the rabbit 3 times a week. […]
In all cases, treatments will be started approximately 30 minutes after the onset of a 30-minute ischemic insult (coronary occlusion) and continued for up to 3 hours following reperfusion. In all cases, cardiovascular function will be monitored both prior to and during ischemia, as well as for up to 180 minutes (3 hours) post-reperfusion. The experiments will be terminated 3 hours post-reperfusion (end of study); irreversible myocardial injury (infarct size by histomorphometery) at this time-point will be evaluated, and will be the primary-end-point of the study.

## N=C(N)NCCC[C@H](NC(=O)[C@@H](N)Cc1c[nH]c2ccccc12)C(=O)N[C@@H](Cc1c[nH]c2ccccc12)C(=O)N[C@@H](CCCCN)C(N)=O [SPN10, H-L-Trp-L-Arg-L-Trp-L-Lys-NH2] (H-WRWK-NH2)
[1]; TUNEL
  number of apoptotic cells in contrast dye-exposed kidneys: reduce the number of apoptotic cells
[1]; contrast dye-exposed kidneys
  loss of renal brush border and vacuolization (PAS): attenuated
[1]; indomethacin, L-NAME, iothalamate, treatment before and after dye
  decline in renal function (GFR) after contrast dye: reduce the decline in renal function
[2]
  infarct size compared to the vehicle control group: decreased infarct size
